From patent US8435978B2, “Substituted sulfonamide compounds” (Gruenenthal GmbH, priority 2006, dated 2013)

Assays:
[1] = molecular target: T1, B1R receptor of the rat (Rattus norvegicus, UniProt P97583); experiment: Functional study on the bradykinin receptor 1 (B1R), FLIPR Ca2+ assay, rB1R cells; assay type: cell-based; conditions: agonist Des-Arg9-bradykinin 100 nM, % inhibition compared with the maximum achievable inhibition; for inhibition at 10 µM: CHO-K1, test substance 10 μM, read-out: B1R Antagonism, rat [10 μM] % Inhibition; for B1R Antagonism, rat [10 μM] % Inhibition: test substance 10 μM, rB1R CHO K1 cells
T1 construct: host or cells: CHO K1 cells (Chinese hamster ovary), stably transfected
T1 sequence (P97583 1-337): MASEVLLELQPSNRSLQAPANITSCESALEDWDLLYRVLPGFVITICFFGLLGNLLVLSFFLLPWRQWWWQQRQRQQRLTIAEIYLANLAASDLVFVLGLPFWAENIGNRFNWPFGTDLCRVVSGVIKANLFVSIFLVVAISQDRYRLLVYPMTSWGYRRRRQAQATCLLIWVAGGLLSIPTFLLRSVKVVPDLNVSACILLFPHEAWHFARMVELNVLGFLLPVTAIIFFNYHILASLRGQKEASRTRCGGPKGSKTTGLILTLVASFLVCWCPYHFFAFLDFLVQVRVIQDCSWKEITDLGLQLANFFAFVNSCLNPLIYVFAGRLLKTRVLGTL
Procedure, shortened: (§1)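 FLIPR Ca2+ assay in recombinant CHO K1 cells (human or rat B1R), Fluo-4 dye; 10 μM compound, 10 min, then EC-level agonist per species (0.5 nM Lys-Des-Arg9-BK human / 100 nM Des-Arg9-BK rat). Output: % inhibition vs maximum.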

[2] = molecular target: T2, human B1R receptor (Homo sapiens, UniProt P46663); experiment: Functional study on the bradykinin receptor 1 (B1R), FLIPR Ca2+ assay, hB1R cells; assay type: cell-based; conditions: agonist Lys-Des-Arg9-bradykinin 0.5 nM, % inhibition compared with the maximum achievable inhibition; for inhibition at 10 µM: CHO-K1, test substance 10 μM, read-out: B1R Antagonism, human [10 μM] % Inhibition; for B1R Antagonism, human [10 μM] % Inhibition: test substance 10 μM, hB1R CHO K1 cells
T2 construct: host or cells: CHO K1 cells (Chinese hamster ovary), stably transfected
T2 sequence (P46663 1-353): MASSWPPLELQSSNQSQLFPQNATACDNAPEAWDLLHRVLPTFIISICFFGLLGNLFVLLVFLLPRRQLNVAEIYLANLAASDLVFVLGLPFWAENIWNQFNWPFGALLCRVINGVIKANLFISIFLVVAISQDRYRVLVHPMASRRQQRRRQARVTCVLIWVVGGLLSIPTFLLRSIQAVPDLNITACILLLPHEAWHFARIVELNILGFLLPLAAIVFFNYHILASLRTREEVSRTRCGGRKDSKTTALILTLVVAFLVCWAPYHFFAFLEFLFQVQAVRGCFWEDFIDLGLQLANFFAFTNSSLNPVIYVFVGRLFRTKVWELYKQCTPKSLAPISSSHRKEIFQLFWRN
Procedure, shortened: as §1

| SMILES | inhibition at 10 µM [1] | inhibition at 10 µM [2] | B1R Antagonism, rat [10 μM] % Inhibition [1] | B1R Antagonism, human [10 μM] % Inhibition [2] |
| --- | --- | --- | --- | --- |
| CN1CCC(N2CCN(C(=O)COCC3CCCCN3S(=O)(=O)c3cccc(C(F)(F)F)c3)CC2)CC1 (stereo not shown) [Example 22, 1-[4-(1-methyl-piperidin-4-yl)-piperazin-1-yl]-2-[1-(3-trifluoromethyl-phenylsulfonyl)-piperidin-2-ylmethoxy]-ethanone] | 21.4% | 92.6% |  |  |
| COc1cc(C)c(S(=O)(=O)N2CCCCC2COCC(=O)Nc2cc(-c3ccccc3)n[nH]2)c(C)c1 (stereo not shown) [Example 545, 2-((1-(4-methoxy-2,6-dimethylphenylsulfonyl)piperidin-2-yl)methoxy)-N-(3-phenyl-1H-pyrazol-5-yl)acetamide] | 106% | 39.8% |  |  |
| COc1cc(C)c(S(=O)(=O)N2CCCCC2COCC(=O)N2CCC(C(=O)N3CCN(C)CC3)CC2)c(C)c1 (stereo not shown) [Example 146, 2-((1-(4-methoxy-2,6-dimethylphenylsulfonyl)piperidin-2-yl)methoxy)-1-(4-(4-methylpiperazin-1-carbonyl)piperidin-1-yl)ethanone] | 99.6% | 97.3% |  |  |
| CN1CCC(N2CCN(C(=O)COCC3CCCCN3S(=O)(=O)c3c(Cl)cccc3Cl)CC2)CC1 (stereo not shown) [Example 565, 2-((1-(2,6-dichlorophenylsulfonyl)piperidin-2-yl)methoxy)-1-(4-(1-methylpiperidin-4-yl)piperazin-1-yl)ethanone] |  |  | 102.52% | 104.82% |
| COc1cc(C)c(S(=O)(=O)N2CCCCC2COCC(=O)N2CCN(C(C)C)CC2)c(C)c1 (stereo not shown) [Example 291, 1-(4-isopropylpiperazin-1-yl)-2-((1-(4-methoxy-2,6-dimethylphenylsulfonyl)piperidin-2-yl)methoxy)ethanone] | 93% | 104% |  |  |
| O=C(COCC1CCCN1S(=O)(=O)c1ccc(Cl)c(Cl)c1)N1CCC(CCN2CCCCC2)CC1 (stereo not shown) [Example 36, 2-((1-(3,4-dichlorophenylsulfonyl)pyrrolidin-2-yl)methoxy)-1-(4-(2-(piperidin-1-yl)-ethyl)piperidin-1-yl)ethanone] | 45.7% | 79.4% |  |  |
| COc1cc(C)c(S(=O)(=O)N2CCCC2COCC(=O)NCc2ccc(N3CCN(C)CC3)cc2)c(C)c1 (stereo not shown) [Example 302, 2-((1-(4-methoxy-2,6-dimethylphenylsulfonyl)pyrrolidin-2-yl)methoxy)-N-(4-(4-methylpiperazin-1-yl)benzyl)acetamide] |  |  | 102.41% | 100.69% |
| COc1cc(OC)cc(N2CCN(C(=O)COCC3CCCCN3S(=O)(=O)c3c(Cl)cc(Cl)cc3Cl)CC2)c1 (stereo not shown) [Example 253, 1-(4-(3,5-dimethoxyphenyl)piperazin-1-yl)-2-((1-(2,4,6-trichlorophenylsulfonyl)piperidin-2-yl)methoxy)ethanone] | 101% | 59.3% |  |  |
| COc1cc(C)c(S(=O)(=O)N2CCCC2COCC(=O)N2CCC(c3cccnc3)C2)c(C)c1 (stereo not shown) [Example 272, 2-((1-(4-methoxy-2,6-dimethylphenylsulfonyl)pyrrolidin-2-yl)methoxy)-1-(3-(pyridin-3-yl)pyrrolidin-1-yl)ethanone] | 84.6% | 97.1% |  |  |
| COc1cccc(-c2cc(NC(=O)COCC3CCCCN3S(=O)(=O)c3c(C)cc(OC)cc3C)n[nH]2)c1 (stereo not shown) [Example 541, 2-((1-(4-methoxy-2,6-dimethylphenylsulfonyl)piperidin-2-yl)methoxy)-N-(5-(3-methoxyphenyl)-1H-pyrazol-3-yl)acetamide] | 108% | 103% |  |  |
| COc1cc(C)c(S(=O)(=O)N2CCCCC2COCC(=O)NCc2ccc(CN(C)C)cc2)c(C)c1 (stereo not shown) [Example 11, N-(4-dimethylaminomethyl-benzyl)-2-[1-(4-methoxy-2,6-dimethyl-phenylsulfonyl)-piperidin-2-ylmethoxy]-acetamide] | 106% | 99.6% |  |  |
| COc1ccc(N2CCN(C(=O)COCC3CCCCN3S(=O)(=O)c3c(Cl)cccc3Cl)CC2)cc1 (stereo not shown) [Example 319, 2-((1-(2,6-dichlorophenylsulfonyl)piperidin-2-yl)methoxy)-1-(4-(4-methoxyphenyl)piperazin-1-yl)ethanone] | 100% | 104% |  |  |
| COc1cc(C)c(S(=O)(=O)N2CCCC2COCC(=O)N2CCN(c3ccccc3)CC2)c(C)c1 (stereo not shown) [Example 461, 2-((1-(4-methoxy-2,6-dimethylphenylsulfonyl)pyrrolidin-2-yl)methoxy)-1-(4-phenylpiperazin-1-yl)ethanone] | 99.1% | 101% |  |  |

More lines, now with the values ahead:

| inhibition at 10 µM [1] | inhibition at 10 µM [2] | B1R Antagonism, rat [10 μM] % Inhibition [1] | B1R Antagonism, human [10 μM] % Inhibition [2] | SMILES |
| --- | --- | --- | --- | --- |
| 100% | 106% |  |  | COc1cc(C)c(S(=O)(=O)N2CCCC2COCC(=O)N(C)[C@H]2CCN(Cc3ccccc3)C2)c(C)c1 (stereo partly drawn) [Example 303, N—((S)-1-benzylpyrrolidin-3-yl)-2-((1-(4-methoxy-2,6-dimethylphenylsulfonyl)pyrrolidin-2-yl)methoxy)-N-methylacetamide] |
| 103% | 93.5% |  |  | CCc1ccc(CC2CCCN2C(=O)COCC2CCCN2S(=O)(=O)c2c(C)cc(OC)cc2C)nc1 (stereo not shown) [Example 490, 1-(2-((5-ethylpyridin-2-yl)methyl)pyrrolidin-1-yl)-2-((1-(4-methoxy-2,6-dimethylphenylsulfonyl)pyrrolidin-2-yl)methoxy)ethanone] |
| 90% | 102% |  |  | Cc1cc(C)c(S(=O)(=O)N2CCCCC2COCC(=O)N2CCN(CC3CCN(C)CC3)CC2)c(C)c1 (stereo not shown) [Example 232, 2-((1-(mesitylsulfonyl)piperidin-2-yl)methoxy)-1-(4-((1-methylpiperidin-4-yl)methyl)piperazin-1-yl)ethanone] |
| 101% | 99.9% |  |  | COc1cc(C)c(S(=O)(=O)N2CCCCC2COCC(=O)N2CCc3cc(N4CCN(C)CC4)ccc3C2)c(C)c1 (stereo not shown) [Example 215, 2-((1-(4-methoxy-2,6-dimethylphenylsulfonyl)piperidin-2-yl)methoxy)-1-(6-(4-methylpiperazin-1-yl)-3,4-dihydroisoquinolin-2(1H)-yl)ethanone] |
| 97.8% | 100% |  |  | COc1cc(C)c(S(=O)(=O)N2CCCCC2COCC(=O)NC(CN2CCN(C)CC2)c2ccccc2)c(C)c1 (stereo not shown) [Example 263, 2-((1-(4-methoxy-2,6-dimethylphenylsulfonyl)piperidin-2-yl)methoxy)-N-(2-(4-methylpiperazin-1-yl)-1-phenylethyl)acetamide] |
| 51.3% | 100% |  |  | O=C(COCC1Cc2ccccc2CN1S(=O)(=O)c1ccc(Cl)cc1Cl)Nc1cccc(N2CCOCC2)c1 (stereo not shown) [Example 265, 2-((2-(2,4-dichlorophenylsulfonyl)-1,2,3,4-tetrahydroisoquinolin-3-yl)methoxy)-N-(3-morpholinophenyl)acetamide] |
| 101% | 106% |  |  | COc1cc(C)c(S(=O)(=O)N2CCCC2COCC(=O)Nc2ccc(N3CCN(C)CC3)cc2)c(C)c1 (stereo not shown) [Example 301, 2-((1-(4-methoxy-2,6-dimethylphenylsulfonyl)pyrrolidin-2-yl)methoxy)-N-(4-(4-methylpiperazin-1-yl)phenyl)acetamide] |
| 99.9% | 104% |  |  | COc1cc(C)c(S(=O)(=O)N2CCCCC2COCC(=O)N(C)CCC2CCC(N(C)C)CC2)c(C)c1 (stereo not shown) [Example 209, N-(2-(4-(dimethylamino)cyclohexyl)ethyl)-2-((1-(4-methoxy-2,6-dimethylphenylsulfonyl)piperidin-2-yl)methoxy)-N-methylacetamide] |
| 99.5% | 94.6% |  |  | COc1cc(C)c(S(=O)(=O)N2CCCC2COCC(=O)NCc2ccccc2N2CCN(C)CC2)c(C)c1 (stereo not shown) [Example 473, 2-((1-(4-methoxy-2,6-dimethylphenylsulfonyl)pyrrolidin-2-yl)methoxy)-N-(2-(4-methylpiperazin-1-yl)benzyl)acetamide] |
| 102% | 39.2% |  |  | COc1cc(C)c(S(=O)(=O)N2CCCCC2COCC(=O)Nc2cccc(N3CCOCC3)c2)c(C)c1 (stereo not shown) [Example 436, 2-((1-(4-methoxy-2,6-dimethylphenylsulfonyl)piperidin-2-yl)methoxy)-N-(3-morpholinophenyl)acetamide] |
